According to US12195428B2, “Charged ion channel blockers and methods for use” (Nocion Therapeutics, Inc., priority 2019, dated 2025):

What was measured:
NaV1.7 [1] = target: T1, NaV1.7 (Homo sapiens, UniProt Q15858); assay: Nav1.7 intracellular inhibition (internal block), whole cell patch clamp; format: cell-based; conditions: % inhibition at 1 μM test concentration, compound in internal solution, 5 Hz stimulation
T1 construct: expressed in transfected cells; host or cells: unnamed tetracycline-inducible cell line, kept under hygromycin and blasticidin selection
T1 sequence (Q15858 whole entry): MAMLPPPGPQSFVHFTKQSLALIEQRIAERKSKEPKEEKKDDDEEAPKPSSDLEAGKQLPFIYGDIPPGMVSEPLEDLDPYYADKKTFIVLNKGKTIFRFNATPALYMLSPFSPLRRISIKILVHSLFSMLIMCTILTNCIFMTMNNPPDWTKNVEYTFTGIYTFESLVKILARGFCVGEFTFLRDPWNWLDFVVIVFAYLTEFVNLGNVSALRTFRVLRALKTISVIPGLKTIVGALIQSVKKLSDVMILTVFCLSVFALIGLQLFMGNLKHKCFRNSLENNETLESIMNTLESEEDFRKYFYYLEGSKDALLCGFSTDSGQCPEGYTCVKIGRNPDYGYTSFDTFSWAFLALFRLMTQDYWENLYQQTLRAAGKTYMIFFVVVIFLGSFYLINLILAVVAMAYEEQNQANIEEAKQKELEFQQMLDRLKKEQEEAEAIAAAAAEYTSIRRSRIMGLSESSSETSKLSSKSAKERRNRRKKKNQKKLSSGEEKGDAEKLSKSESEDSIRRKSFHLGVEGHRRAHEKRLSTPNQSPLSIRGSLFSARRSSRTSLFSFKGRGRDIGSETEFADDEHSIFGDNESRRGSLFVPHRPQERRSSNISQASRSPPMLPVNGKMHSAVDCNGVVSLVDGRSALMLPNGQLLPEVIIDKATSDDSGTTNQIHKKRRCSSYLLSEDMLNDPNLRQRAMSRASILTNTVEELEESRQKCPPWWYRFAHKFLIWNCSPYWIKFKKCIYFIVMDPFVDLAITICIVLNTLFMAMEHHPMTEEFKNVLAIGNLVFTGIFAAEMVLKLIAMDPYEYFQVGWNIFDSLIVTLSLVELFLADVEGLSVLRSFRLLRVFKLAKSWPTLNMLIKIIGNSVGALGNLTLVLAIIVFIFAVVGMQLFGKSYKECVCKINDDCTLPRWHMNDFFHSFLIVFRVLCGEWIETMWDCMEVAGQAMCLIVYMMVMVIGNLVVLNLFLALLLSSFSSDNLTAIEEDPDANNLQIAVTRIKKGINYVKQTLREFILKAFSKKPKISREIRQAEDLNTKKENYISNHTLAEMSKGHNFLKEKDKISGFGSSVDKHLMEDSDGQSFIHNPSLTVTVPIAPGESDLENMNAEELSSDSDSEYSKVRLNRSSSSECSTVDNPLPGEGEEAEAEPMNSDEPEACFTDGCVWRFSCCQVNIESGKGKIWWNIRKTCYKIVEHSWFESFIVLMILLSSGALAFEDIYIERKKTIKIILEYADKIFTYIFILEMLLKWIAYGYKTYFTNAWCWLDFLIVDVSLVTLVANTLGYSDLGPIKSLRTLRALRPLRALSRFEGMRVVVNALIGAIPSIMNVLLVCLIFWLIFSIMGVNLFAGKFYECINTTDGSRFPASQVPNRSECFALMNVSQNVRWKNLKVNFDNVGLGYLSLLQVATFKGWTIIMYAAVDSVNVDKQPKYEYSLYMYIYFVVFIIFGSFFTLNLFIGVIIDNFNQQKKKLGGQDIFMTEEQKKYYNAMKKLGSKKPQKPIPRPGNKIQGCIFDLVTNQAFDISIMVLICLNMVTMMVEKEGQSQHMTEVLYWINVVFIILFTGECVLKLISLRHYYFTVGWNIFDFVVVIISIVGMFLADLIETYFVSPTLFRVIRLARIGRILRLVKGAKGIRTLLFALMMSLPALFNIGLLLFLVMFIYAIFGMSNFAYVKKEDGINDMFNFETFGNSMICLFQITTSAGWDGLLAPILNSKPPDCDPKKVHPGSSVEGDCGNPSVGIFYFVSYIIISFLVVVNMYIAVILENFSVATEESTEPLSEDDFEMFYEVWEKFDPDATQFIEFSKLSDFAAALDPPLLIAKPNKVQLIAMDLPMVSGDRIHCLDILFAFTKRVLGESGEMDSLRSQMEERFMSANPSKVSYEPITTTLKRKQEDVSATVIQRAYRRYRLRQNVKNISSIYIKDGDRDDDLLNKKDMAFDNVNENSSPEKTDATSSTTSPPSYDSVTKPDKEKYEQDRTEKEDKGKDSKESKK
Method: (§1) Representative compounds of the invention were synthesized according to the described methods and tested for the ability to inhibit voltage-gated sodium channels.
(§2) NaV1.7 was expressed upon induction with tetracycline. Cells were cultured in DMEM containing 10% dialyzed Fetal Bovine Serum (VWR, Radnor, PA), 1% Glutamax (VWR, Radnor, PA), 1% Penicillin-Streptomycin (VWR, Radnor, PA), 100 mg/L Hygromycin (Thermo Fisher Scientific, Waltham, MA and 5 mg/L Blasticidin (Alfa Aesar, Haverhill, MA). Cells were grown and maintained at 37° C. in a humidified environment containing 10% CO2 in air. Cells were detached from the culture flask for passage and harvested using 0.05% Trypsin-EDTA (Thermo Fisher Scientific, Waltham, MA). To induce NaV1.7, cells were induced with tetracycline ([…], IBI Scientific, Peosta, IA) the day before recording and plated onto 24-well plates. Cells were washed with DPBS (VWR, Radnor, PA), trypsinized and then triturated five times in 10 mL of growth media to break apart cell aggregates. For one 24-well plate, 2 mL of cell suspension was mixed with 23 mL of fresh growth media and […] tetracycline added. 1 ml of mixed media with cells was then added to each well of a 24-well plate, with a 12 mm coverslip already placed in the bottom of the well. Cells were then incubated in 37° C. and 10% CO2 overnight.
(§3) The intracellular solution contained the following (in mM) CsCl 135, NaCl 10, EGTA 10, HEPES 10, MgCl2 2, adjusted to pH 7.2 with CsOH. The external solution was a normal Ringer solution containing (in mM) NaCl 155, HEPES 10, glucose 10, KCl 3.5, CaCl2) 1.5, MgCl2 1 adjusted to pH 7.4 with NaOH. CsCl is from Alfa Aesar, Haverhill, MA. All other chemicals are from Sigma-Aldrich, St. Louis, MO. In order to test the degree of internal block by test compounds the compounds were dissolved in internal solution at the indicated test concentration. […] In order to test the degree of external block by test compounds the compounds were dissolved in external solution at the indicated test concentration.
(§4) 18-24 hours after cells were induced with tetracycline, coverslips were placed into a chamber filled with Normal Ringer solution at room temperature and the chamber placed on a microscope. Pipettes were pulled from borosilicate glass on a P97 puller (Sutter Instrument, Novato, CA) and polished with a MF-830 Microforge (Narishige International USA, Inc, Amityville, NY) to have a resistance of 1.5-2.5 MΩ when filled with CsCl internal solution at room temperature. Healthy cells (those that are round and translucent with no visible blemishes) were chosen for seal formation. A seal was formed between the pipette and the cell, and a brief pulse of suction was used to “break in” and establish the whole-cell configuration. The membrane potential was held at −100 mV before the voltage protocol began. Only cells with series resistance between 1.5-5 MΩ were retained for analysis. The voltage protocol was as follows: Cells were held at −100 mV for 12 ms followed by a hyperpolarizing step to −105 mV for 12 ms to monitor the leak. Cells were then stepped back to −100 mV for 40 ms. Cells were then depolarized to −20 mV for 10 ms and then returned to −100 mV for 26 ms.
Once the recording was started, the voltage protocol was run at 30 second intervals for 5 minutes to get a stable baseline. This was followed by four 30-second periods of 5 Hz stimulation of the same voltage protocol separated by 1 minute of rest which was then followed by 0.33 Hz stimulation after the last train. Currents were recorded using PatchMaster software with Heka EPC10 (HEKA Electronics, Lambrecht, Germany). Only cells with inward current amplitudes at −20 mV between 400 pA and 4 nA were accepted. In addition, cells having leak currents greater than 10% of their current amplitudes were discarded. […]

[2] = PAMPA membrane permeability assay; format: in vitro ADME; conditions: pH 7.4 buffer, GIT lipid, 4 hours incubation
Method: The PAMPA assay (pION, Inc., Woburn MA) was used to determine the ability of compounds of the invention to cross an artificial lipid membrane by passive diffusion. Test compounds were dissolved in DMSO (10 mM) and diluted 200-fold in buffer (pION Inc., pH 7.4) to provide 50 uM stock solutions. Buffer (150 μL) was added to a UV blank plate and stock solutions (150 μL) were transferred to a UV reference plate. The blank and reference spectrum were read using a spectrophotometer. Stock solutions (200 μL) were added to the donor plate of the PAMPA sandwich plate and an accept plate painted with GIT lipid (pION Inc, 5 μL) was placed on top. Buffer (200 μL) was added to the acceptor plate and the PAMPA sandwich plate was incubated for 4 hours. Aliquots (150 μL) from the acceptor plate were added to a UV plate and read as acceptor spectrum. Aliquots (150 μL) of the donor solutions were added to a UV analysis plate and read as donor spectrum. The permeability coefficient of test compounds was calculated using PAMPA Explorer™ software (version 3.5.0.4) based on the AUC of the reference plate, the donor plate, and the acceptor plate.

NaV1.7 [3] = target: T1, NaV1.7; assay: Nav1.7 extracellular inhibition (external block), whole cell patch clamp; format: cell-based; conditions: compound in external solution for 5 minutes, 5 Hz stimulation; for inhibition at 10 µM: % inhibition at 10 μM test concentration; for inhibition at 30 µM: % inhibition at 30 μM test concentration
Method: as §1, §2, §3, §4
Once the recording was started, the voltage protocol was run at 30 second intervals for 5 minutes to get a stable baseline. […] Currents were recorded using PatchMaster software with Heka EPC10 (HEKA Electronics, Lambrecht, Germany). […]

SMILES	inhibition at 1 µM (NaV1.7 [1]) [%]	PAMPA (10^−6 cm/s) [2]	inhibition at 10 µM (NaV1.7 [3]) [%]	inhibition at 30 µM (NaV1.7 [3]) [%]
Cc1cccc(C)c1NC(=O)C[N+]1(C)CCCC(c2ccccc2)C1.[I-] (stereo not drawn) [Compound 4A]	70 to 90	+ (“+” (<0.1 10^−6 cm/s))		
CC[N+]1(CC(=O)Nc2c(C)cccc2C)CCC[C@H](c2ccccc2)C1.[I-] (stereo partly drawn) [Compound 3A]	> 90	+ (“+” (<0.1 10^−6 cm/s))	30 to 70	
CCC[N+]1(CC(=O)Nc2c(C)cccc2C)CCCC(c2ccccc2)C1 (stereo not drawn) [Compound 6A]	> 90	+ (“+” (<0.1 10^−6 cm/s))	30 to 70	
CC[N+]1(CC(=O)Nc2c(C)cccc2C)CCCC(c2ccccc2)C1 (stereo not drawn) [Compound 1A, 1-(2-((2,6-dimethylphenyl)amino)-2-oxoethyl)-1-ethyl-3-phenylpiperidin-1-ium iodide]	> 90			
CC[N+]1(CC(=O)Nc2c(C)cccc2C)CCCCC1c1ccccc1 (stereo not drawn) [Compound 5A]	70 to 90	+ (“+” (<0.1 10^−6 cm/s))		30 to 70
CC[N+]1(CC(=O)Nc2c(C)cccc2C)CCC[C@@H](c2ccccc2)C1.[I-] (stereo partly drawn) [Compound 2A]	> 90	+ (“+” (<0.1 10^−6 cm/s))	< 30	

Second part, the molecule after the results:

inhibition at 1 µM (NaV1.7 [1]) [%]	PAMPA (10^−6 cm/s) [2]	inhibition at 10 µM (NaV1.7 [3]) [%]	inhibition at 30 µM (NaV1.7 [3]) [%]	SMILES
30 to 70				CCC[N+]1(CC(=O)Nc2c(C)cccc2C)CCCCC1c1ccccc1 (stereo not drawn) [Compound 10A]
30 to 70	+ (“+” (<0.1 10^−6 cm/s))			COC(=O)C[N+]1(CC(=O)Nc2c(C)cccc2C)CCCCC1c1ccccc1 (stereo not drawn) [Compound 9A]
30 to 70	+ (“+” (<0.1 10^−6 cm/s))		30 to 70	Cc1cccc(C)c1NC(=O)C[N+]1(C)CCCCC1c1ccccc1.[I-] (stereo not drawn) [Compound 8A]
